Assay [1] is described as follows: DPPH radical-scavenging ability. In kind it is biochemical. How it is done:
DPPH [[…]] is a free-radical compound. […] Accordingly, antioxidant activity can be compared from the ratio of decolorized DPPH radicals. After mixing 50 μL of a 0.36 mM DPPH solution and 50 μL of a test substance dissolved in ethanol at 1:1 and conducting reaction at room temperature in the dark for 30 minutes, absorbance was measured at 540 nm. The DPPH radical-scavenging ability of Example 1, Comparative Example 1 and Comparative Example 2 of different darae species at different concentrations was calculated from the measured absorbance.

The nature of assay [2]: ABTS radical-scavenging ability. It counts as biochemical. How it is done:
After dissolving 7.4 mM 2,2-azino-bis(3-ethylbenzthiazoline-6-sulfonic acid) and 2.6 mM potassium persulfate respectively in distilled water and mixing at 1:1, ABTS^+ is formed by conducting reaction at room temperature in the dark for 24 hours. 24 hours later, the ABTS solution was diluted to purified water to adjust absorbance at 732 nm to 0.7. Then, after adding 10 μL of a test substance to 190 μL of the ABTS solution and conducting reaction in the dark for 10 minutes, absorbance was measured at 732 nm. The ABTS radical-scavenging ability of Example 1, Comparative Example 1 and Comparative Example 2 of different darae species at different concentrations was calculated from the measured absorbance.

The record followed here is patent US20220193163A1, “COMPOSITION COMPRISING ACTINIDIA POLYGAMA EXTRACT FOR ALLEVIATING SKIN DAMAGE OR MOISTURIZING SKIN” (G&P BIOSCIENCE CO., LTD., priority 2019, published 2022).

For the compound `O=C1O[C@H]([C@@H](O)CO)C(O)=C1O` [L-Ascorbic acid], in assay [1], the “DPPH radical-scavenging ability IC50” value is given as 0.03 ± 0.01 mg/mL.

As for `Cc1c(C)c2c(c(C)c1O)CCC(C)(C(=O)O)O2` (centres unmarked) [Trolox], the “ABTS radical-scavenging ability IC50” value in assay [2] stood at 0.10 ± 0.01 mg/mL.
